Measurements as given in ChEMBL document CHEMBL4619786, “Discovery of Novel Resorcinol Dibenzyl Ethers Targeting the Programmed Cell Death-1/Programmed Cell Death-Ligand 1 Interaction as Potential Anticancer Agents” (J Med Chem, 2020).
In brackets after ≈: the same amount, converted by molar mass.

Experiments:
[1] = target: T1, Programmed cell death protein 1/Programmed cell death 1 ligand 1 (Homo sapiens, UniProt Q9NZQ7); assay: Inhibition of human PD1/PDL1 protein-protein interaction by HTRF assay; assay type: protein-complex assay
T1 sequence (Q15116 whole entry, the tested form may be a part): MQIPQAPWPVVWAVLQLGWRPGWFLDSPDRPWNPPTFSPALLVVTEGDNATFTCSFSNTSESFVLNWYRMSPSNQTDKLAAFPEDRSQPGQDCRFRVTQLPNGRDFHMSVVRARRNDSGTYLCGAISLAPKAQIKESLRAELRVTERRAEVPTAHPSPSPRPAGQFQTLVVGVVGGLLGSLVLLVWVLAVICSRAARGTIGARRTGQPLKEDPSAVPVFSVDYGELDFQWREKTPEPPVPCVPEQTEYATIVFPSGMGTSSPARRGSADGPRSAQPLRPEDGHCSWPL
T1 sequence (Q9NZQ7 whole entry, the tested form may be a part): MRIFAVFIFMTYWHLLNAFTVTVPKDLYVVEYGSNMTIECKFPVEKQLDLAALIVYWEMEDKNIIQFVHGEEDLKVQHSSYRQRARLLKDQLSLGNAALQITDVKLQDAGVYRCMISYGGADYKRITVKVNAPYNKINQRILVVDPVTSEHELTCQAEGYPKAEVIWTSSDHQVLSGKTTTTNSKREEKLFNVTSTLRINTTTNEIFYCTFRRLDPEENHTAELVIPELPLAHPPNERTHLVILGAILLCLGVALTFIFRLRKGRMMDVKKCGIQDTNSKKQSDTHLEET

[2] = target: T1, Programmed cell death protein 1/Programmed cell death 1 ligand 1; assay: Inhibition of human Fc-tagged PD1 N-terminal domain (Leu25 to Gln167 residues) expressed in HEK293 cells/human His-tagged PDL1 (Phe19 to Arg238 residues) expressed in HEK293 cells protein-protein interaction after 40 mins by APC-labeled anti-His antibody/Eu-labeled anti-human IgG based HTRF assay; assay type: cell-based
[3] = system: MCF7; assay: Cytotoxicity against human MCF7 cells assessed as reduction in cell viability measured after 48 hrs by MTT assay; assay type: functional, cell-based; details: MCF7, 48 h
[4] = system: B16-F10; assay: Cytotoxicity against mouse B16/F10 cells assessed as reduction in cell viability measured after 48 hrs by MTT assay; assay type: functional, cell-based; details: B16-F10, 48 h
[5] = system: A549; assay: Cytotoxicity against human A549 cells assessed as reduction in cell viability measured after 48 hrs by MTT assay; assay type: functional, cell-based; details: A549, 48 h
[6] = target: T1, Programmed cell death protein 1/Programmed cell death 1 ligand 1; assay: Inhibition of human C-terminal Ig-Fc-tagged PD1 (Leu25 to Gln167 residues) expressed in HEK293 cells/human C-terminal epitope-His-tagged PDL1 (Phe19 to Arg238 residues) expressed in HEK293 cells protein-protein interaction preincubated for 15 mins with PDL1 followed by PD1 addition and measured after 15 mins by APC-labeled anti-His antibody/Eu-labeled anti-human IgG based HTRF assay; assay type: cell-based
[7] = Solubility of the compound in water; assay type: physicochemical

Compound | IC50 [1] | IC50 [2] | IC50 [3] | IC50 [4] | IC50 [5] | IC50 [6] | further results
Cc1c(COc2ccc3cc(CNCCO)ccc3c2)cccc1-c1ccccc1 | > 10000 nM | > 10000 nM | – | – | – | – | –
Cc1c(COc2cc(OCc3cccc(C#N)c3)c(CN3C[C@@H](O)C[C@@H]3CO)cc2Cl)cccc1-c1ccc2c(c1)OCCO2 | 11.1 nM | – | 6600 nM | 2400 nM | 4600 nM | – | –
Cc1c(COc2cc(OCc3ccnc(C#N)c3)c(CNC(C)(C)C(=O)O)cc2Cl)cccc1-c1ccc2ocnc2c1 | – | – | – | – | – | 10 nM | –
COc1cc(NC(=O)c2cccc(-c3ccccc3)c2C)ccc1CN1CCN(C(C)=O)CC1 | – | > 10000 nM | – | – | – | – | –
Cc1c(COc2cc(OCc3cccc(C#N)c3)c(CN3CCC(O)C3)cc2Cl)cccc1-c1ccc2c(c1)OCCO2 (stereo unspecified) | 12.9 nM | – | 4400 nM | 2300 nM | 4200 nM | – | –
Cc1c(Nc2cccc3cc(CNCCO)cnc23)cccc1-c1ccccc1 | – | < 10 nM | – | – | – | – | –
O=C(NC(Cc1cc(=O)[nH]c2ccccc12)C(=O)O)c1ccc(Cl)cc1 (stereo unspecified) [REBAMIPIDE] | – | – | – | – | – | – | solubility [7]: 7.6 µg/mL (≈ 20.5 µM)
Cc1c(COc2cc(OCc3cccc(C#N)c3)c(CNC(C)(C)C(=O)O)cc2Cl)cccc1-c1ccncc1 | > 100 nM | – | – | – | – | > 100 nM | –
Cc1c(COc2cc(OCc3cccc(C#N)c3)c(CN3CC[C@H](C(=O)O)C3)cc2Cl)cccc1-c1ccc2c(c1)OCCO2 | 7.9 nM | – | > 10000 nM | 10800 nM | > 10000 nM | 7.9 nM | –
